Assay results reported in PMC11842588, “A first-in-class selective inhibitor of ERK1/2 and ERK5 overcomes drug resistance with a single-molecule strategy” (Signal Transduction and Targeted Therapy, 2025).

How the values were obtained:
Assay in all cases: Kinase profiling
Assay type in all cases: biochemical
[1] = biological target: T1, A-Raf(h) (Homo sapiens, UniProt P10398)
T1 construct: purchased Eurofins Cerep SA (KinaseProfiler)
Protocol: (§1) 380 kinases inhibitory activities of SKLB-D18 were conducted by Eurofins Cerep SA. The result was illustrated by kinase tree (http://www.kinhub.org/kinmap/).

[2] = biological target: T2, ALK2(h) (Homo sapiens, UniProt Q04771)
T2 construct: purchased Eurofins Cerep SA (KinaseProfiler)
Protocol: as §1

[3] = biological target: T3, ATR/ATRIP(h) (Homo sapiens, UniProt Q13535)
T3 construct: purchased Eurofins Cerep SA (KinaseProfiler)
Protocol: as §1

[4] = biological target: T4, CK1α(h) (Homo sapiens, UniProt P48729)
T4 construct: purchased Eurofins Cerep SA (KinaseProfiler)
T4 sequence (P48729 whole entry): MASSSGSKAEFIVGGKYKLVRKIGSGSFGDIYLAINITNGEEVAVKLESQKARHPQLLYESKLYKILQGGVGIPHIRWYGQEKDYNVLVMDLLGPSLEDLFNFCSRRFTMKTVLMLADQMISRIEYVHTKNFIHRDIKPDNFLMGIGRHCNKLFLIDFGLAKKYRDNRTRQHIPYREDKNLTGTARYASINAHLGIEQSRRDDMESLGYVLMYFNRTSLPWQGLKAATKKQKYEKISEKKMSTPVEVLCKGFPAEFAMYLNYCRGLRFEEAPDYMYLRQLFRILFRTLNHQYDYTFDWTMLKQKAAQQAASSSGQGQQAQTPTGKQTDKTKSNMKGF
Protocol: as §1

[5] = biological target: T5, CLK2(h) (Homo sapiens, UniProt P49760)
T5 construct: purchased Eurofins Cerep SA (KinaseProfiler)
T5 sequence (P49760 whole entry): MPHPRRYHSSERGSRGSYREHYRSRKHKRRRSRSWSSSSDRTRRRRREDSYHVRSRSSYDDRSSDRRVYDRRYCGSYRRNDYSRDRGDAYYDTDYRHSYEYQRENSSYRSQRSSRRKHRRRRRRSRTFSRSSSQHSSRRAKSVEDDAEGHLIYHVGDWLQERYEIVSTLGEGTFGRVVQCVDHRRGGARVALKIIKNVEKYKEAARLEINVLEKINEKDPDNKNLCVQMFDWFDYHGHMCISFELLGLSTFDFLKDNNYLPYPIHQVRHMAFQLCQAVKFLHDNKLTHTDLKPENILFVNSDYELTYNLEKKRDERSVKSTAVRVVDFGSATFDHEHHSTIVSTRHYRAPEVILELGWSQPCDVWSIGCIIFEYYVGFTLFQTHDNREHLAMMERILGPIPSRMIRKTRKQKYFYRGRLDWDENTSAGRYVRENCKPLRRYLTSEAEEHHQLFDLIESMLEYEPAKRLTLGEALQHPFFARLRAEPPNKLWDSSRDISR
Protocol: as §1

[6] = biological target: T6, CLK4(h) (Homo sapiens, UniProt Q9HAZ1)
T6 construct: purchased Eurofins Cerep SA (KinaseProfiler)
Protocol: as §1

[7] = biological target: T7, CaMKIIβ(h) (Homo sapiens, UniProt Q13554)
T7 construct: purchased Eurofins Cerep SA (KinaseProfiler)
T7 sequence (Q13554 whole entry): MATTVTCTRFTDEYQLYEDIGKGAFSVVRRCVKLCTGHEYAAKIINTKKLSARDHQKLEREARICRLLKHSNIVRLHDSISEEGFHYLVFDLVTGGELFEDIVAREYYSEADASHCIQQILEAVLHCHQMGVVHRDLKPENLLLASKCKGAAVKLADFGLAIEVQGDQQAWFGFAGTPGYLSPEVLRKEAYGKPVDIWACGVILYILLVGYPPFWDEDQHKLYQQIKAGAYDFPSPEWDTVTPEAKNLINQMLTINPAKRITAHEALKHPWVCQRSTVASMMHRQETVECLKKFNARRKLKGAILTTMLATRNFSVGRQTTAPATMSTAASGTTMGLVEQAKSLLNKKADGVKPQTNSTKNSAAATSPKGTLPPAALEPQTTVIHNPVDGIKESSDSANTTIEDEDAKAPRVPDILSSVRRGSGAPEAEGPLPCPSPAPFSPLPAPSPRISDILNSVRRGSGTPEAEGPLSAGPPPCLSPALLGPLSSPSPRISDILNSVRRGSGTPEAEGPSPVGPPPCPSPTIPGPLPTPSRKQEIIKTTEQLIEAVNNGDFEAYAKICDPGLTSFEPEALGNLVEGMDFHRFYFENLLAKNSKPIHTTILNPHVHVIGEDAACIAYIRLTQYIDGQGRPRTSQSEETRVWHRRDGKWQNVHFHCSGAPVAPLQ
Protocol: as §1

[8] = biological target: T8, CaMKIIδ(h) (Homo sapiens, UniProt Q13557)
T8 construct: purchased Eurofins Cerep SA (KinaseProfiler)
Protocol: as §1

[9] = biological target: T9, CaMKK2(h) (Homo sapiens, UniProt Q96RR4)
T9 construct: purchased Eurofins Cerep SA (KinaseProfiler)
Protocol: as §1

[10] = biological target: T10, DRAK1(h) (Homo sapiens, UniProt Q9UEE5)
T10 construct: purchased Eurofins Cerep SA (KinaseProfiler)
T10 sequence (Q9UEE5 whole entry): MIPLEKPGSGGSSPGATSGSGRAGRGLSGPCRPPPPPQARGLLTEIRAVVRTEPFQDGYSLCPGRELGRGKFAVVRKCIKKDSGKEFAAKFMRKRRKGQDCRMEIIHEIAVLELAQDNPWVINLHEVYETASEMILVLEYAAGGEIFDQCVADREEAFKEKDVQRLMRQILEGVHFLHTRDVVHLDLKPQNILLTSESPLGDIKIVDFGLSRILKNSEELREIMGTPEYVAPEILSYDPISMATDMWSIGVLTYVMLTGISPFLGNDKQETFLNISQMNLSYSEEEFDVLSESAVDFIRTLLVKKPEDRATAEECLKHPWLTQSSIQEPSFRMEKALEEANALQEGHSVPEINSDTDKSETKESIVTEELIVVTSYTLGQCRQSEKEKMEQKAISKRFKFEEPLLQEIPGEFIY
Protocol: as §1

[11] = biological target: T11, DYRK1A(h) (Homo sapiens, UniProt Q13627)
T11 construct: purchased Eurofins Cerep SA (KinaseProfiler)
Protocol: as §1

[12] = biological target: T12, ErbB4(h) (Homo sapiens, UniProt Q15303)
T12 construct: purchased Eurofins Cerep SA (KinaseProfiler)
Protocol: as §1

[13] = biological target: T13, FGFR1(h) (Homo sapiens, UniProt P11362)
T13 construct: purchased Eurofins Cerep SA (KinaseProfiler)
Protocol: as §1

[14] = biological target: T14, FGFR3(h) (Homo sapiens, UniProt P22607)
T14 construct: purchased Eurofins Cerep SA (KinaseProfiler)
T14 sequence (P22607 23-806): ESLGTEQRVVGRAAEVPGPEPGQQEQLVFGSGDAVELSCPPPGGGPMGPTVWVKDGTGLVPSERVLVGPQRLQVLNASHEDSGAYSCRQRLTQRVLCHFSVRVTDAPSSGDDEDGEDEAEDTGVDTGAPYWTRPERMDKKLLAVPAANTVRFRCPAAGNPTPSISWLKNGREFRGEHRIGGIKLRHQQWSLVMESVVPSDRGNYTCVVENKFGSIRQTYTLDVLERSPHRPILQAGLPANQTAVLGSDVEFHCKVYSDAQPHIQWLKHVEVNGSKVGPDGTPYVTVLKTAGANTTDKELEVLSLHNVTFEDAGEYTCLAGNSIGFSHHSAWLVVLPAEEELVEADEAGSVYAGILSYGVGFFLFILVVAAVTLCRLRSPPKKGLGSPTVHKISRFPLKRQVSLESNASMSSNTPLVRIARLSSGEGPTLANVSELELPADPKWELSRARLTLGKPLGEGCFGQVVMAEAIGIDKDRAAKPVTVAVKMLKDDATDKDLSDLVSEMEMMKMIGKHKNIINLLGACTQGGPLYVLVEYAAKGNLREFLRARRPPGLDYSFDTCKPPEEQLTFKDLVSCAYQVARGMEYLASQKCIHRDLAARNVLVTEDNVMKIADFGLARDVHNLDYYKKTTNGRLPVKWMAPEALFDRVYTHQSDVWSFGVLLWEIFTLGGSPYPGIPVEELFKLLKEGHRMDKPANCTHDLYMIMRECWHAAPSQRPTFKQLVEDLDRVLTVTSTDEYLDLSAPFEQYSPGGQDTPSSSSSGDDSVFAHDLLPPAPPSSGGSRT
Protocol: as §1

[15] = biological target: T15, GCN2(h) (Homo sapiens, UniProt Q9P2K8)
T15 construct: purchased Eurofins Cerep SA (KinaseProfiler)
Protocol: as §1

[16] = biological target: T16, IRR(h) (Homo sapiens, UniProt P14616)
T16 construct: purchased Eurofins Cerep SA (KinaseProfiler)
Protocol: as §1

[17] = biological target: T17, JAK1(h) (Homo sapiens, UniProt P23458)
T17 construct: purchased Eurofins Cerep SA (KinaseProfiler)
Protocol: as §1

[18] = biological target: T18, LATS1(h) (Homo sapiens, UniProt O95835)
T18 construct: purchased Eurofins Cerep SA (KinaseProfiler)
Protocol: as §1

[19] = biological target: T19, LATS2(h) (Homo sapiens, UniProt Q9NRM7)
T19 construct: purchased Eurofins Cerep SA (KinaseProfiler)
Protocol: as §1

[20] = biological target: T20, MAP4K5(h) (Homo sapiens, UniProt Q9Y4K4)
T20 construct: purchased Eurofins Cerep SA (KinaseProfiler)
Protocol: as §1

[21] = biological target: T21, MAPK1(h) (Homo sapiens, UniProt P28482)
T21 construct: purchased Eurofins Cerep SA (KinaseProfiler)
Protocol: as §1

[22] = biological target: T22, MARK3(h) (Homo sapiens, UniProt P27448)
T22 construct: purchased Eurofins Cerep SA (KinaseProfiler)
Protocol: as §1

[23] = biological target: T23, MATK(h) (Homo sapiens, UniProt P42679)
T23 construct: purchased Eurofins Cerep SA (KinaseProfiler)
Protocol: as §1

[24] = biological target: T24, MST1(h) (Homo sapiens, UniProt Q13043)
T24 construct: purchased Eurofins Cerep SA (KinaseProfiler)
Protocol: as §1

[25] = biological target: T25, MYO3B(h) (Homo sapiens, UniProt Q8WXR4)
T25 construct: purchased Eurofins Cerep SA (KinaseProfiler)
Protocol: as §1

[26] = biological target: T26, NDR1(h) (Homo sapiens, UniProt Q15208)
T26 construct: purchased Eurofins Cerep SA (KinaseProfiler)
Protocol: as §1

[27] = biological target: T27, NEK11(h) (Homo sapiens, UniProt Q8NG66)
T27 construct: purchased Eurofins Cerep SA (KinaseProfiler)
Protocol: as §1

[28] = biological target: T28, NEK4(h) (Homo sapiens, UniProt P51957)
T28 construct: purchased Eurofins Cerep SA (KinaseProfiler)
Protocol: as §1

[29] = biological target: T29, NEK5(h) (Homo sapiens, UniProt Q6P3R8)
T29 construct: purchased Eurofins Cerep SA (KinaseProfiler)
Protocol: as §1

[30] = biological target: T30, PAK1(h) (Homo sapiens, UniProt Q13153)
T30 construct: purchased Eurofins Cerep SA (KinaseProfiler)
Protocol: as §1

[31] = biological target: T31, PAK4(h) (Homo sapiens, UniProt O96013)
T31 construct: purchased Eurofins Cerep SA (KinaseProfiler)
Protocol: as §1

[32] = biological target: T32, PASK(h) (Homo sapiens, UniProt Q96RG2)
T32 construct: purchased Eurofins Cerep SA (KinaseProfiler)
Protocol: as §1

[33] = biological target: T33, PKCδ(h) (Homo sapiens, UniProt Q05655)
T33 construct: purchased Eurofins Cerep SA (KinaseProfiler)
T33 sequence (Q05655 whole entry): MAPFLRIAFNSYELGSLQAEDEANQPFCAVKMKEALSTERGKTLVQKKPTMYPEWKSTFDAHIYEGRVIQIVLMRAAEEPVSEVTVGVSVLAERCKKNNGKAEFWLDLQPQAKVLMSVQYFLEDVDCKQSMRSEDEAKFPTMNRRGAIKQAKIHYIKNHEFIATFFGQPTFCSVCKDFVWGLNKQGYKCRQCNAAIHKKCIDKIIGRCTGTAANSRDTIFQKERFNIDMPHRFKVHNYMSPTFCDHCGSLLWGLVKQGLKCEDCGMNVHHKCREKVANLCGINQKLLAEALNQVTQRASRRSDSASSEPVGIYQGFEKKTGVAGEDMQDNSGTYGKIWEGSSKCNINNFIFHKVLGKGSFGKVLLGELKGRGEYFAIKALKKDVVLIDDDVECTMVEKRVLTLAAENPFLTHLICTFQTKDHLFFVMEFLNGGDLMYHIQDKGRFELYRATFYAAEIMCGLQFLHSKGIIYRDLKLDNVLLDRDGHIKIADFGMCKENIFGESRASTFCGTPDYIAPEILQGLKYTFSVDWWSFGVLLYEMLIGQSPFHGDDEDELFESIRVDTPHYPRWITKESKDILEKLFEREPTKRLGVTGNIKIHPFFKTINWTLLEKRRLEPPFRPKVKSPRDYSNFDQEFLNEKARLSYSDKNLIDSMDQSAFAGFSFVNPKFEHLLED
Protocol: as §1

[34] = biological target: T34, PKCθ(h) (Homo sapiens, UniProt Q04759)
T34 construct: purchased Eurofins Cerep SA (KinaseProfiler)
Protocol: as §1

[35] = biological target: T35, PRAK(h) (Homo sapiens, UniProt Q8IW41)
T35 construct: purchased Eurofins Cerep SA (KinaseProfiler)
T35 sequence (Q8IW41 whole entry): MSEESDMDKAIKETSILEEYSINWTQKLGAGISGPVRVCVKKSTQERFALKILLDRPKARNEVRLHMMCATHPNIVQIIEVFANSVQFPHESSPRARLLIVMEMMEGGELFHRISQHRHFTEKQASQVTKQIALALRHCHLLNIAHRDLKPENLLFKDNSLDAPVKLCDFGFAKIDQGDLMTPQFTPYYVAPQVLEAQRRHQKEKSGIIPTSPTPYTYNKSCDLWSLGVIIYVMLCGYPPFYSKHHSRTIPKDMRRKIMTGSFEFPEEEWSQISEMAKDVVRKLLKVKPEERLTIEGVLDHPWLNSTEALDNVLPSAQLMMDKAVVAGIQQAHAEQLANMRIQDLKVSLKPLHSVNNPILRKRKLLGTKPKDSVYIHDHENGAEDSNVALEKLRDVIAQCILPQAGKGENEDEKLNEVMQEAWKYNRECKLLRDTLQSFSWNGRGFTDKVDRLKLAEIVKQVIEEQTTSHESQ
Protocol: as §1

[36] = biological target: T36, PRKG2(h) (Homo sapiens, UniProt Q13237)
T36 construct: purchased Eurofins Cerep SA (KinaseProfiler)
Protocol: as §1

[37] = biological target: T37, Pim-3(h) (Homo sapiens, UniProt Q86V86)
T37 construct: purchased Eurofins Cerep SA (KinaseProfiler)
Protocol: as §1

[38] = biological target: T38, Plk3(h) (Homo sapiens, UniProt Q9H4B4)
T38 construct: purchased Eurofins Cerep SA (KinaseProfiler)
Protocol: as §1

[39] = biological target: T39, Ron(h) (Homo sapiens, UniProt Q04912)
T39 construct: purchased Eurofins Cerep SA (KinaseProfiler)
Protocol: as §1

[40] = biological target: T40, TBK1(h) (Homo sapiens, UniProt Q9UHD2)
T40 construct: purchased Eurofins Cerep SA (KinaseProfiler)
Protocol: as §1

[41] = biological target: T41, Tie2 (h) (Homo sapiens, UniProt Q02763)
T41 construct: purchased Eurofins Cerep SA (KinaseProfiler)
T41 sequence (Q02763 23-1124): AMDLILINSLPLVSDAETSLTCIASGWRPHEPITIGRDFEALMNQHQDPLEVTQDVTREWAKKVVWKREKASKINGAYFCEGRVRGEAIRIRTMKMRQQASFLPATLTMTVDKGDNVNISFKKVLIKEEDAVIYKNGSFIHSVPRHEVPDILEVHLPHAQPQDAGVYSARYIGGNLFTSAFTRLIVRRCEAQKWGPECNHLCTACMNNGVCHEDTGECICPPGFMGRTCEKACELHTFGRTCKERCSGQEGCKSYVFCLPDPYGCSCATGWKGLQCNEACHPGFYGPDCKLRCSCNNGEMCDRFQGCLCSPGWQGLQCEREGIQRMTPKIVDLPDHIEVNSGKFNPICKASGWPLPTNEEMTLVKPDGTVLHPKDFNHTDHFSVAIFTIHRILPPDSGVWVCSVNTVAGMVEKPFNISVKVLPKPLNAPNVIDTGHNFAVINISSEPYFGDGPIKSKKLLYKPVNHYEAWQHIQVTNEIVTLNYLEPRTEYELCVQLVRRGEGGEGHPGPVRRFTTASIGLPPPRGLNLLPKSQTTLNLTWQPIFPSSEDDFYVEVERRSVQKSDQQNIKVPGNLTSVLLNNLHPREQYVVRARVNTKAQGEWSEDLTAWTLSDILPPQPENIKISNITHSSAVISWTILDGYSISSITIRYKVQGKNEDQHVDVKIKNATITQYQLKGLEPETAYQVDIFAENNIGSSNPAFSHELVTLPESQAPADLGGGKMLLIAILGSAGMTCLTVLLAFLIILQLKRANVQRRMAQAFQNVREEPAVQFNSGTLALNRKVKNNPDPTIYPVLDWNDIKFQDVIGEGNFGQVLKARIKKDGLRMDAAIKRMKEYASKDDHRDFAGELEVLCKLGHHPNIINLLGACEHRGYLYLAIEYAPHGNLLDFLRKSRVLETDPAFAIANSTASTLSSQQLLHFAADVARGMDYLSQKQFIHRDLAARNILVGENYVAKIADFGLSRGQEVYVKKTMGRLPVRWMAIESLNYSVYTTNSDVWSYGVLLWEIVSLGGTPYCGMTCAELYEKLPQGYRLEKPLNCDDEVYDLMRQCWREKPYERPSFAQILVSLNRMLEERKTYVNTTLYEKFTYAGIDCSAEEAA
Protocol: as §1

## CN(C)Cc1cccc(Nc2ncc(Cl)c(-c3csc(C(=O)NN4CCOCC4)c3)n2)c1 [SKLB-D18, 4-(5-chloro-2-((3-((dimethylamino)methyl)phenyl)amino)pyrimidin-4-yl)-N-morpholinothiophene-2-carboxamide]
[1]
  inhibition at 1 µM: 63%
[2]
  inhibition at 1 µM: 16%
[3]
  inhibition at 1 µM: 13%
[4]
  inhibition at 1 µM: 8%
[5]
  inhibition at 1 µM: 58%
[6]
  inhibition at 1 µM: 68%
[7]
  inhibition at 1 µM: 44%
[8]
  inhibition at 1 µM: 47%
[9]
  inhibition at 1 µM: 21%
[10]
  inhibition at 1 µM: 44%
[11]
  inhibition at 1 µM: 13%
[12]
  inhibition at 1 µM: -16%
[13]
  inhibition at 1 µM: 70%
[14]
  inhibition at 1 µM: 55%
[15]
  inhibition at 1 µM: 69%
[16]
  inhibition at 1 µM: 57%
[17]
  inhibition at 1 µM: 59%
[18]
  inhibition at 1 µM: 21%
[19]
  inhibition at 1 µM: 37%
[20]
  inhibition at 1 µM: 51%
[21]
  inhibition at 1 µM: 94%
[22]
  inhibition at 1 µM: 68%
[23]
  inhibition at 1 µM: 2%
[24]
  inhibition at 1 µM: 45%
[25]
  inhibition at 1 µM: 4%
[26]
  inhibition at 1 µM: 66%
[27]
  inhibition at 1 µM: -4%
[28]
  inhibition at 1 µM: 66%
[29]
  inhibition at 1 µM: 68%
[30]
  inhibition at 1 µM: 45%
[31]
  inhibition at 1 µM: 21%
[32]
  inhibition at 1 µM: 13%
[33]
  inhibition at 1 µM: 23%
[34]
  inhibition at 1 µM: 7%
[35]
  inhibition at 1 µM: -2%
[36]
  inhibition at 1 µM: 18%
[37]
  inhibition at 1 µM: 33%
[38]
  inhibition at 1 µM: 6%
[39]
  inhibition at 1 µM: 58%
[40]
  inhibition at 1 µM: 64%
[41]
  inhibition at 1 µM: 44%
